# Reference: PubChem BioAssay AID248 (DTP/NCI, 2004)
# Several values for one entry are separate records, joined by “and”; a condition that tells them apart may be missing. Identical values can stand only once. Inconclusive results and toxic doses are left out.
# System: L1210 leukemia ip in BDF1 mice, survival T/C
# Assay: NCI In Vivo Anticancer Drug Screen. Data for tumor model L1210 Leukemia (intraperitoneal) in B6D2F1 (BDF1) mice
# Settings: endpoint: mean survival time, higher = longer survival
# Method in brief: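 In this screen, tumor-bearing mice given compound are compared to those given vehicle, and their survival values are reported as a treated-to-control quotient.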
# [1] = dose: 100.0 mg/kg/injection, schedule: Q04DX002 (ip), vehicle: saline
# [2] = dose: 200.0 mg/kg/injection, schedule: Q04DX002 (ip), vehicle: saline
# [3] = dose: 50.0 mg/kg/injection, schedule: Q01DX001 (ip), vehicle: saline
# [4] = dose: 100.0 mg/kg/injection, schedule: Q01DX001 (ip), vehicle: saline
# [5] = dose: 100.0 mg/kg/injection, schedule: Q04DX003 (ip), vehicle: saline with Tween-80
# [6] = dose: 200.0 mg/kg/injection, schedule: Q04DX003 (ip), vehicle: saline with Tween-80
# [7] = dose: 400.0 mg/kg/injection, schedule: Q04DX003 (ip), vehicle: saline with Tween-80
# [8] = dose: 100.0 mg/kg/injection, schedule: Q01DX001 (ip), vehicle: Klucel (hydroxypropylcellulose) (HPC)
# [9] = dose: 100.0 mg/kg/injection, schedule: Q04DX003 (ip), vehicle: Klucel (hydroxypropylcellulose) (HPC)
# [10] = dose: 200.0 mg/kg/injection, schedule: Q01DX001 (ip), vehicle: Klucel (hydroxypropylcellulose) (HPC)
# [11] = dose: 200.0 mg/kg/injection, schedule: Q04DX003 (ip), vehicle: Klucel (hydroxypropylcellulose) (HPC)
# [12] = dose: 400.0 mg/kg/injection, schedule: Q01DX001 (ip), vehicle: Klucel (hydroxypropylcellulose) (HPC)
# [13] = dose: 50.0 mg/kg/injection, schedule: Q01DX001 (ip), vehicle: Klucel (hydroxypropylcellulose) (HPC)
# [14] = dose: 100.0 mg/kg/injection, schedule: Q01DX009 (ip), vehicle: saline with Tween-80
smiles,measurement,setting,value
C/C(Cl)=C/C(=O)O,T/C,"dose: 25.0 mg/kg/injection, schedule: Q04DX002 (ip), vehicle: saline",106 % of control
same,T/C,"dose: 50.0 mg/kg/injection, schedule: Q04DX002 (ip), vehicle: saline",92 % of control
same,T/C,"dose: 100.0 mg/kg/injection, schedule: Q01DX001 (ip), vehicle: saline with Tween-80",102 % of control
same,T/C,[1],92 % of control
same,T/C,"dose: 200.0 mg/kg/injection, schedule: Q01DX001 (ip), vehicle: saline with Tween-80",105 % of control
same,T/C,[2],98 % of control and 102 % of control
same,T/C,"dose: 400.0 mg/kg/injection, schedule: Q01DX001 (ip), vehicle: saline with Tween-80",96 % of control
Cc1cc(N(C)C)ccc1N=Nc1ccccc1,T/C,"dose: 50.0 mg/kg/injection, schedule: Q01DX001 (ip), vehicle: carboxymethylcellulose (CMC)",102 % of control
same,T/C,"dose: 100.0 mg/kg/injection, schedule: Q01DX001 (ip), vehicle: carboxymethylcellulose (CMC)",102 % of control
same,T/C,"dose: 200.0 mg/kg/injection, schedule: Q01DX001 (ip), vehicle: carboxymethylcellulose (CMC)",107 % of control
same,T/C,"dose: 400.0 mg/kg/injection, schedule: Q01DX001 (ip), vehicle: carboxymethylcellulose (CMC)",96 % of control
Cc1ccc(N(CCO)CCO)cc1,T/C,[3],93 % of control
same,T/C,[4],102 % of control
O=C(COc1ccc(Cl)c(Cl)c1)NCc1ccc[n+](Cc2ccc([N+](=O)[O-])cc2)c1,T/C,[5],89 % of control
same,T/C,[6],91 % of control
same,T/C,[7],88 % of control
Oc1c(Br)cc(Br)cc1C=Nc1ccc(Cl)cc1.Oc1c(Br)cc(Br)cc1C=Nc1ccc(Cl)cc1.[Co],T/C,[5],98 % of control
same,T/C,[6],103 % of control
same,T/C,[7],98 % of control
Cc1cc(Cl)c(Cl)cc1NC(=O)Nc1cccc(C(F)(F)F)c1,T/C,"dose: 100.0 mg/kg/injection, schedule: Q01DX009 (ip), vehicle: carboxymethylcellulose (CMC)",93 % of control
same,T/C,"dose: 200.0 mg/kg/injection, schedule: Q01DX009 (ip), vehicle: carboxymethylcellulose (CMC)",91 % of control
same,T/C,"dose: 400.0 mg/kg/injection, schedule: Q01DX009 (ip), vehicle: carboxymethylcellulose (CMC)",102 % of control
Nc1cccc(C(=O)CC(=O)Nc2nccs2)c1,T/C,"dose: 50.0 mg/kg/injection, schedule: Q04DX003 (ip), vehicle: Klucel (hydroxypropylcellulose) (HPC)",90 % of control
same,T/C,[8],98 % of control
same,T/C,[9],95 % of control
same,T/C,[10],103 % of control
same,T/C,[11],90 % of control
same,T/C,[12],98 % of control
Cn1c(=O)c2c(nc(NCC[N+](C)(C)C)n2C)n(C)c1=O,T/C,"dose: 15.0 mg/kg/injection, schedule: Q01DX001 (ip), vehicle: saline",92 % of control
same,T/C,"dose: 30.0 mg/kg/injection, schedule: Q01DX001 (ip), vehicle: saline",97 % of control
COc1c(OC)c(C(C)C)c2c(OC(C)=O)c(C)c(-c3c(C)c(OC(C)=O)c4c(C(C)C)c(OC)c(OC)c5c4c3OC5=O)c3c2c1C(=O)O3,T/C,[13],100 % of control
same,T/C,[8],93 % of control
same,T/C,[10],98 % of control
NC(N)=Nc1ccc(-c2ccc(N=C(N)N)cc2)cc1,T/C,"dose: 12.5 mg/kg/injection, schedule: Q01DX Z (oral), vehicle: saline",97 % of control
same,T/C,"dose: 25.0 mg/kg/injection, schedule: Q01DX Z (oral), vehicle: saline",106 % of control
same,T/C,"dose: 50.0 mg/kg/injection, schedule: Q01DX Z (oral), vehicle: saline",101 % of control
same,T/C,"dose: 100.0 mg/kg/injection, schedule: Q01DX Z (oral), vehicle: saline",105 % of control
same,T/C,"dose: 200.0 mg/kg/injection, schedule: Q01DX Z (oral), vehicle: saline",100 % of control
OCc1cc(Cl)cc(Cl)c1O,T/C,[14],97 % of control
same,T/C,[5],97 % of control
same,T/C,[6],98 % of control
same,T/C,[7],101 % of control
Clc1ccc(P(c2ccc(Cl)cc2)c2ccc(Cl)cc2)cc1,T/C,[14],87 % of control
same,T/C,[5],98 % of control
same,T/C,[6],95 % of control
same,T/C,[7],97 % of control
CCOC(=O)c1ccc(N)cc1C(=O)OCC,T/C,[8],93 % of control
same,T/C,[10],95 % of control
same,T/C,[12],87 % of control
O=C1CN=C(c2ccccn2)c2cc(Cl)ccc2N1,T/C,"dose: 50.0 mg/kg/injection, schedule: Q01DX009 (ip), vehicle: water",98 % of control
same,T/C,"dose: 100.0 mg/kg/injection, schedule: Q01DX009 (ip), vehicle: water",97 % of control
same,T/C,"dose: 200.0 mg/kg/injection, schedule: Q01DX009 (ip), vehicle: water",104 % of control
same,T/C,"dose: 200.0 mg/kg/injection, schedule: Q04DX003 (ip), vehicle: none",99 % of control
same,T/C,"dose: 200.0 mg/kg/injection, schedule: Q04DX003 (ip), vehicle: water",100 % of control
same,T/C,"dose: 267.0 mg/kg/injection, schedule: Q01DX009 (ip), vehicle: saline",97 % of control
same,T/C,"dose: 400.0 mg/kg/injection, schedule: Q01DX009 (ip), vehicle: saline",110 % of control
same,T/C,"dose: 400.0 mg/kg/injection, schedule: Q01DX009 (ip), vehicle: water",198 % of control
same,T/C,"dose: 400.0 mg/kg/injection, schedule: Q04DX003 (ip), vehicle: none",101 % of control
same,T/C,"dose: 400.0 mg/kg/injection, schedule: Q04DX003 (ip), vehicle: water",102 % of control
same,T/C,"dose: 600.0 mg/kg/injection, schedule: Q04DX003 (ip), vehicle: none",101 % of control
same,T/C,"dose: 600.0 mg/kg/injection, schedule: Q04DX003 (ip), vehicle: water",102 % of control
CCCCc1[nH]ccc2c(C)c3nc4ccccc4c3cc12,T/C,[3],96 % of control
same,T/C,[4],97 % of control
same,T/C,"dose: 200.0 mg/kg/injection, schedule: Q01DX001 (ip), vehicle: saline",96 % of control
same,T/C,"dose: 400.0 mg/kg/injection, schedule: Q01DX001 (ip), vehicle: saline",97 % of control
O=S1(=O)CCNc2ccccc2O1,T/C,[13],101 % of control
same,T/C,[8],93 % of control
same,T/C,[10],97 % of control
same,T/C,[12],95 % of control
Cn1c2ccccc2c2nnc(NCCCCO)nc21,T/C,[1],106 % of control
same,T/C,[2],97 % of control
same,T/C,"dose: 400.0 mg/kg/injection, schedule: Q04DX002 (ip), vehicle: saline",101 % of control
CC(C)(C)CC#N,T/C,"dose: 5.0 mg/kg/injection, schedule: Q01DX001 (ip), vehicle: saline",100 % of control
same,T/C,"dose: 10.0 mg/kg/injection, schedule: Q01DX001 (ip), vehicle: saline",106 % of control
same,T/C,"dose: 20.0 mg/kg/injection, schedule: Q01DX001 (ip), vehicle: saline",102 % of control
same,T/C,"dose: 40.0 mg/kg/injection, schedule: Q01DX001 (ip), vehicle: saline",106 % of control
same,T/C,"dose: 80.0 mg/kg/injection, schedule: Q01DX001 (ip), vehicle: saline",100 % of control
same,T/C,[4],94 % of control
CCOC(=O)/C(N=O)=C(/O)c1ccncc1,T/C,[9],96 % of control
same,T/C,[11],102 % of control
O=C(Nc1cccc(C2=NCCN2)c1)Nc1ccc(NC(=O)Nc2cccc(C3=NCCN3)c2)c(Cl)c1,T/C,"dose: 0.25 mg/kg/injection, schedule: Q01DX Z (ip), vehicle: carboxymethylcellulose (CMC)",100 % of control
same,T/C,"dose: 0.5 mg/kg/injection, schedule: Q01DX Z (ip), vehicle: carboxymethylcellulose (CMC)",105 % of control
same,T/C,"dose: 1.0 mg/kg/injection, schedule: Q01DX Z (ip), vehicle: carboxymethylcellulose (CMC)",104 % of control
same,T/C,"dose: 2.0 mg/kg/injection, schedule: Q01DX Z (ip), vehicle: carboxymethylcellulose (CMC)",110 % of control
same,T/C,"dose: 16.0 mg/kg/injection, schedule: Q01DX Z (ip), vehicle: carboxymethylcellulose (CMC)",207 % of control
same,T/C,"dose: 16.0 mg/kg/injection, schedule: Q01DX Z (ip), vehicle: water",218 % of control
same,T/C,"dose: 31.0 mg/kg/injection, schedule: Q01DX Z (ip), vehicle: water",286 % of control
same,T/C,"dose: 62.0 mg/kg/injection, schedule: Q01DX Z (ip), vehicle: water",173 % of control
same,T/C,"dose: 62.0 mg/kg/injection, schedule: Q01DX Z (oral), vehicle: carboxymethylcellulose (CMC)",105 % of control
same,T/C,"dose: 125.0 mg/kg/injection, schedule: Q01DX Z (oral), vehicle: carboxymethylcellulose (CMC)",94 % of control
same,T/C,"dose: 250.0 mg/kg/injection, schedule: Q01DX Z (oral), vehicle: carboxymethylcellulose (CMC)",97 % of control
same,T/C,"dose: 500.0 mg/kg/injection, schedule: Q01DX Z (oral), vehicle: carboxymethylcellulose (CMC)",97 % of control
O=C(Nc1cccc(Cl)c1Cl)Sc1ccccc1O,T/C,"dose: 100.0 mg/kg/injection, schedule: Q01DX009 (ip), vehicle: Klucel (hydroxypropylcellulose) (HPC)",104 % of control
same,T/C,"dose: 200.0 mg/kg/injection, schedule: Q01DX009 (ip), vehicle: Klucel (hydroxypropylcellulose) (HPC)",97 % of control
